# According to PubChem BioAssay (NCI):
#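 Test compounds were applied to cells in 96-well plates for 48 hours at 5 doses. GI50 is the concentration that inhibits growth by half. TGI: total growth inhibition.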
# Assays:
# Assay in all cases: NCI anticancer screen, dose series, 48 h
# [1] = system: K-562 leukemia
# [2] = system: UO-31 renal
# [3] = system: MCF7 breast
# [4] = system: A498 renal
# [5] = system: U251 CNS
# [6] = system: IGROV1 ovarian
# [7] = system: BT-549 breast
# [8] = system: OVCAR-4 ovarian
# [9] = system: HS 578T breast
# [10] = system: ACHN renal
# [11] = system: CCRF-CEM leukemia
# [12] = system: LOX IMVI melanoma
# [13] = system: NCI-H522 lung
# [14] = system: MDA-MB-435
# [15] = system: SNB-19 CNS
# [16] = system: OVCAR-5 ovarian
# [17] = system: SF-268 CNS
# [18] = system: HCC-2998 colon
# [19] = system: HOP-92 NSCLC
# [20] = system: SF-295 CNS
# [21] = system: HT29 colon
# [22] = system: RPMI-8226 leukemia
# [23] = system: HL-60(TB) leukemia
# [24] = system: HOP-62 NSCLC
# [25] = system: DU-145 prostate
# [26] = system: SK-MEL-5 melanoma
# [27] = system: KM12 colon
# [28] = system: RXF 393 renal
# [29] = system: NCI-H460 lung
# [30] = system: NCI-H226 lung
# [31] = system: EKVX NSCLC
# [32] = system: OVCAR-8 ovarian
# [33] = system: HCT-15 colon
# [34] = system: HCT-116 colon
# [35] = system: COLO 205 colon
# [36] = system: UACC-62 melanoma
# [37] = system: SW-620 colon
# [38] = system: A549 NSCLC
# [39] = system: SNB-75 CNS
# [40] = system: M14 melanoma
# [41] = system: SR leukemia
# [42] = system: NCI/ADR-RES ovarian
# [43] = system: SK-MEL-2 melanoma
# [44] = system: OVCAR-3 ovarian
# [45] = system: SK-OV-3 ovarian
# [46] = system: CAKI-1 renal
# [47] = system: SN12C renal
# [48] = system: MDA-MB-231 breast
# [49] = system: PC-3 prostate
# [50] = system: NCI-H23 lung
# [51] = system: TK-10 renal
# [52] = system: MOLT-4 leukemia
# [53] = system: 786-0 renal
# [54] = system: SF-539 CNS
# [55] = system: SK-MEL-28 melanoma
# [56] = system: T-47D breast
# [57] = system: MALME-3M melanoma
# [58] = system: UACC-257 melanoma
smiles,measurement,setting,value
CCOC(=O)[C@@H](C)C[C@H](Cc1ccccc1)NC(=O)c1csc([C@@H](C[C@H](C(C)C)N(C)C(=O)CNC(=O)[C@H]2CCCCN2C)OC(C)=O)n1,GI50,[1],0.358 µM
same,TGI,[1],> 14.3 µM
same,GI50,[2],5.07 µM
same,TGI,[2],> 14.3 µM
same,GI50,[3],0.319 µM
same,TGI,[3],> 14.3 µM
same,GI50,[4],0.464 µM
same,TGI,[4],1.38 µM
same,GI50,[5],1 µM
same,TGI,[5],> 14.3 µM
same,GI50,[6],0.628 µM
same,TGI,[6],> 14.3 µM
same,GI50,[7],0.891 µM
same,TGI,[7],> 14.3 µM
same,GI50,[8],1.3 µM
same,TGI,[8],> 14.3 µM
same,GI50,[9],1.5 µM
same,TGI,[9],> 8.43 µM
same,GI50,[10],0.837 µM
same,TGI,[10],> 14.3 µM
same,GI50,[11],1.08 µM
same,TGI,[11],> 14.3 µM
same,GI50,[12],2.14 µM
same,TGI,[12],> 14.3 µM
same,GI50,[13],0.463 µM
same,TGI,[13],> 3.79 µM
same,GI50,[14],0.228 µM
same,TGI,[14],0.801 µM
same,GI50,[15],0.758 µM
same,TGI,[15],> 14.3 µM
same,GI50,[16],3.58 µM
same,TGI,[16],> 14.3 µM
same,GI50,[17],4.89 µM
same,TGI,[17],> 14.3 µM
same,GI50,[18],0.795 µM
same,TGI,[18],> 14.3 µM
same,GI50,[19],0.254 µM
same,TGI,[19],2.63 µM
same,GI50,[20],0.621 µM
same,TGI,[20],6.85 µM
same,GI50,[21],0.467 µM
same,TGI,[21],> 14.3 µM
same,GI50,[22],0.496 µM
same,TGI,[22],> 14.3 µM
same,GI50,[23],0.312 µM
same,TGI,[23],1.01 µM
same,GI50,[24],1.87 µM
same,TGI,[24],> 14.3 µM
same,GI50,[25],0.58 µM
same,TGI,[25],> 9.17 µM
same,GI50,[26],0.444 µM
same,TGI,[26],> 7.3 µM
same,GI50,[27],0.556 µM
same,TGI,[27],> 14.3 µM
same,GI50,[28],0.502 µM
same,TGI,[28],4.62 µM
same,GI50,[29],0.612 µM
same,TGI,[29],> 6.66 µM
same,GI50,[30],> 5.67 µM
same,TGI,[30],> 14.3 µM
same,GI50,[31],1.97 µM
same,TGI,[31],> 14.3 µM
same,GI50,[32],2.84 µM
same,TGI,[32],> 14.3 µM
same,GI50,[33],1.49 µM
same,TGI,[33],> 14.3 µM
same,GI50,[34],0.529 µM
same,TGI,[34],> 14.3 µM
same,GI50,[35],0.483 µM
same,TGI,[35],3.64 µM
same,GI50,[36],0.514 µM
same,TGI,[36],> 14.3 µM
same,GI50,[37],0.733 µM
same,TGI,[37],> 14.3 µM
same,GI50,[38],3.49 µM
same,TGI,[38],> 14.3 µM
same,GI50,[39],0.534 µM
same,TGI,[39],> 14.3 µM
same,GI50,[40],0.804 µM
same,TGI,[40],7.31 µM
same,GI50,[41],0.145 µM
same,TGI,[41],> 14.3 µM
same,GI50,[42],> 14.3 µM
same,TGI,[42],> 14.3 µM
same,GI50,[43],0.69 µM
same,TGI,[43],> 14.3 µM
same,GI50,[44],0.334 µM
same,TGI,[44],1.33 µM
same,GI50,[45],0.835 µM
same,TGI,[45],> 14.3 µM
same,GI50,[46],0.771 µM
same,TGI,[46],> 14.3 µM
same,GI50,[47],2.18 µM
same,TGI,[47],> 14.3 µM
same,GI50,[48],1.44 µM
same,TGI,[48],> 10.8 µM
same,GI50,[49],0.508 µM
same,TGI,[49],> 14.3 µM
same,GI50,[50],2.34 µM
same,TGI,[50],> 14.3 µM
same,GI50,[51],> 7.9 µM
same,TGI,[51],> 14.3 µM
same,GI50,[52],3.12 µM
same,TGI,[52],> 14.3 µM
same,GI50,[53],1.37 µM
same,TGI,[53],> 14.3 µM
same,GI50,[54],1.74 µM
same,TGI,[54],5.46 µM
same,GI50,[55],1.52 µM
same,TGI,[55],> 14.3 µM
same,GI50,[56],0.59 µM
same,TGI,[56],> 14.3 µM
same,GI50,[57],0.601 µM
same,TGI,[57],> 14.3 µM
N#Cc1cc(F)cc(Oc2ccc(S(=O)(=O)C(F)F)c3c2CC(F)(F)[C@H]3O)c1,GI50,[1],27.1 µM
same,TGI,[1],> 100 µM
same,GI50,[2],15.1 µM
same,TGI,[2],69.9 µM
same,GI50,[3],25.7 µM
same,TGI,[3],> 100 µM
same,GI50,[4],20.6 µM
same,TGI,[4],73.6 µM
same,GI50,[5],29.8 µM
same,TGI,[5],> 100 µM
same,GI50,[6],37.4 µM
same,TGI,[6],> 100 µM
same,GI50,[7],22.3 µM
same,TGI,[7],> 100 µM
same,GI50,[8],19 µM
same,TGI,[8],91.7 µM
same,GI50,[9],28.5 µM
same,TGI,[9],> 100 µM
same,GI50,[10],30.4 µM
same,TGI,[10],> 100 µM
same,GI50,[11],22.9 µM
same,TGI,[11],> 100 µM
same,GI50,[12],35 µM
same,TGI,[12],> 100 µM
same,GI50,[13],19.1 µM
same,TGI,[13],88.7 µM
same,GI50,[14],37.7 µM
same,TGI,[14],> 100 µM
same,GI50,[15],37.2 µM
same,TGI,[15],> 100 µM
same,GI50,[16],51 µM
same,TGI,[16],> 100 µM
same,GI50,[17],35.4 µM
same,TGI,[17],> 100 µM
same,GI50,[18],48 µM
same,TGI,[18],> 100 µM
same,GI50,[19],16 µM
same,TGI,[19],46.5 µM
same,GI50,[20],24.9 µM
same,TGI,[20],79.2 µM
same,GI50,[21],39.3 µM
same,TGI,[21],> 100 µM
same,GI50,[22],19.2 µM
same,TGI,[22],96.4 µM
same,GI50,[23],27.4 µM
same,TGI,[23],87.2 µM
same,GI50,[24],51.1 µM
same,TGI,[24],> 100 µM
same,GI50,[25],36.1 µM
same,TGI,[25],> 100 µM
same,GI50,[26],17.6 µM
same,TGI,[26],34.7 µM
same,GI50,[27],44.8 µM
same,TGI,[27],> 100 µM
same,GI50,[28],21.5 µM
same,TGI,[28],> 100 µM
same,GI50,[29],42.1 µM
same,TGI,[29],> 100 µM
same,GI50,[30],31.3 µM
same,TGI,[30],> 100 µM
same,GI50,[31],25.3 µM
same,TGI,[31],> 100 µM
same,GI50,[32],33.8 µM
same,TGI,[32],> 100 µM
same,GI50,[33],29.2 µM
same,TGI,[33],> 100 µM
same,GI50,[34],25.2 µM
same,TGI,[34],> 100 µM
same,GI50,[35],25.6 µM
same,TGI,[35],63.1 µM
same,GI50,[36],21.7 µM
same,TGI,[36],> 100 µM
same,GI50,[37],55.3 µM
same,TGI,[37],> 100 µM
same,GI50,[38],27.9 µM
same,TGI,[38],> 100 µM
same,GI50,[39],12.6 µM
same,TGI,[39],67.3 µM
same,GI50,[40],30.1 µM
same,TGI,[40],> 100 µM
same,GI50,[58],24.6 µM
same,TGI,[58],79.1 µM
same,GI50,[41],36 µM
same,TGI,[41],> 100 µM
same,GI50,[42],26.4 µM
same,TGI,[42],> 100 µM
same,GI50,[43],16.4 µM
same,TGI,[43],59.8 µM
same,GI50,[44],36.5 µM
same,TGI,[44],> 100 µM
same,GI50,[45],31.4 µM
same,TGI,[45],> 100 µM
same,GI50,[46],27.7 µM
same,TGI,[46],> 100 µM
same,GI50,[47],28.7 µM
same,TGI,[47],> 100 µM
same,GI50,[48],22.3 µM
same,TGI,[48],73.2 µM
same,GI50,[49],23.9 µM
same,TGI,[49],> 100 µM
same,GI50,[50],27.6 µM
same,TGI,[50],> 100 µM
same,GI50,[51],28.4 µM
same,TGI,[51],82.4 µM
same,GI50,[52],27.6 µM
same,TGI,[52],> 100 µM
same,GI50,[54],37 µM
same,TGI,[54],> 100 µM
same,GI50,[55],36.1 µM
same,TGI,[55],> 100 µM
same,GI50,[56],16.3 µM
same,TGI,[56],> 100 µM
same,GI50,[57],28.5 µM
same,TGI,[57],> 100 µM
